Results from patent publication US11738027B2, “MPO inhibitors for use in medicine” (AstraZeneca AB, priority 2017, dated 2023).

Experiments:
[1] = system: in situ zymosan activated peritoneum neutrophils; assay: In vivo glutathione sulphonamide formation; set-up: species or system rat; details: rats, plasma concentration of ~5 μM
[2] = system: human sperm with activated human neutrophils; assay: Sperm motility assessment (Hamilton-Thorn CASA) with activated neutrophils; assay type: cell-based; details: 3 μM
Procedure: (§1) The neutrophils were then added to the sperm in sperm-safe 5 mL Polystyrene round bottom tubes (Falcon) at a ratio of about 1:3.
Sperm motility was assessed using the Hamilton-Thorn CASA system. For each condition, a total of 200 cells were counted in at least four different fields of view. Where a sample had very low motility at least 100 cells were counted. The motility parameters were assessed at the start of the co-incubation with neutrophils (time 0), after 2 h and after 24 h. Motility was expressed as a percentage different between time 0 and after 2 h and percentage difference after time 0 and after 24 h for each time point for each sample.

[3] = system: human sperm with activated human neutrophils; assay: Kremer penetration assay; assay type: cell-based; details: 3 μM
Procedure: as §1
The Kremer penetration test assesses a sperm cell's ability to penetrate and swim through viscous media. This test is also known as the sperm-cervical mucus penetration test. A cervical mucus substitute was made up using 1% methyl cellulose dissolved in capacitating media. The solution was gassed in a 37° C. 5% CO2 incubator for 20 min. Then flat capillary tubes (Rectangle Boro Tubing, CM Scientific) were placed in the methyl cellulose solution for a further 20 min to allow the media to flow up the capillary tubes. After the 2 h incubation, 100 μL from each condition was aliquoted into a fresh sperm safe tube. One end of each tube was then blocked using plasticine and then one tube was placed open end first into each test condition. Each sperm safe tube containing a capillary tube was incubated 1 hour at 37° C. with 5% CO2. After 1 h, the capillary tubes were removed and the number of cells at 1 cm mark were counted manually. The results were expressed as a ratio to control (sperm only).

[4] = system: isolated human neutrophils; assay: PMA stimulated HOCl in isolated neutrophils; assay type: cell-based; details: Neutrophil
human MPO = molecular target: T1, human MPO (Homo sapiens, UniProt P05164); assay: MPO inhibition; assay type: biochemical; details: read-out: IC50, irreversible inhibitor of human MPO
T1 sequence (P05164 49-745): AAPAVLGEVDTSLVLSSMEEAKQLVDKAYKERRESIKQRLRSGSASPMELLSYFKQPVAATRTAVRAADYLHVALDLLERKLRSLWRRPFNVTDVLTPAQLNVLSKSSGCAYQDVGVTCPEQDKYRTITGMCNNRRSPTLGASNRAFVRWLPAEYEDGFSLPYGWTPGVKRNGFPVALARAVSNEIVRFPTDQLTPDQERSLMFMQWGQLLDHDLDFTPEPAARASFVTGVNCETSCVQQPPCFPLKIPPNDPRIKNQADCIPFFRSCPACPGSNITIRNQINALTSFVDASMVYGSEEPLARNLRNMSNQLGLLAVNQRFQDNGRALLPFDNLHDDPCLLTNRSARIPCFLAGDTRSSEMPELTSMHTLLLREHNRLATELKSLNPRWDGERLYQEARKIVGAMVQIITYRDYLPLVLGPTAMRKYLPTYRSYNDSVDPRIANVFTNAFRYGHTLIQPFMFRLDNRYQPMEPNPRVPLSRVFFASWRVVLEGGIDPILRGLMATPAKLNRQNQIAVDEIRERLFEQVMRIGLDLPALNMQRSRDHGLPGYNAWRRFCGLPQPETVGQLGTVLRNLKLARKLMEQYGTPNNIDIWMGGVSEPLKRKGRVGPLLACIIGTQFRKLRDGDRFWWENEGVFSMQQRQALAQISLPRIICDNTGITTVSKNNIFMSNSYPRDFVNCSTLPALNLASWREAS

[5] = Phase 1 studies in healthy volunteers, adverse events; assay type: in vivo, human; details: oral, single doses up to 1200 mg (1400 mg ER), multiple up to 325 mg TID (600 mg BID 10 days ER), 181 subjects
human sperm = details: 4 mM, 2-hour incubation, N=29, P<0.01
Procedure: A 10 mM stock solution of the drug was made up in 100% DMSO. This was then serially diluted to a working concentration of 3 μM using sEBSS as the diluent and stored at 4° C. The drug or vehicle was then added to the neutrophils and placed in a 37° C. water bath for 10 min. The neutrophils were then added to the sperm in sperm-safe 5 mL Polystyrene round bottom tubes (Falcon) at a ratio of about 1:3. Zymosan at a final concentration of 1 μg/ml was added to activate the neutrophils and incubated for 2 hours at 37° C.
Following the 2 h incubation with activated neutrophils, aliquots of 50 μL were taken from all 4 conditions and transferred into 1.5 mL Eppendorf tubes. H2O2 was used as a positive control. An extra aliquot for a secondary only control was taken from the sperm only tube. The cells (except the secondary only tube) were incubated for 0.5 h at 37° C. with an anti-malondialdehyde (MDA) antibody (ab27642, abcam, Cambridge) at a working ratio of 1:50 (Moazamian R, Polhemus A, Connaughton H, Fraser B, Whiting S, Gharagozloo P, Aitken R J. Mol Hum Reprod 2015; 21(6):502-15). […] The level of MDA staining in each condition was then assessed in 10,000 cells using a pre-validated flow cytometry program in a BD LSRFortessa cell analyser. Due to a technical error one sample was unable to be assessed using flow cytometry.

| Compound | in vivo formation of glutathione sulphonamide [1] | absolute change in overall sperm motility from baseline to 2 h and 24 h ([2]; first 11 subjects, vs vehicle, two-tailed t-test P=0.09) | percentage differences between CASA measurements at time zero and after 24-hour incubation (motility, progressive, rapid, VAP, VSL, VCL, ALH) ([2]; n=29, vs vehicle, not statistically significant (P>0.1)) | patients with clinically-relevant beneficial effect ([3]; 29 patients evaluated) | sperm found at 1 cm versus vehicle ([3]; 2 h incubation, n=29, p=0.02) | further subjects showing a smaller improvement ([3]; of 29 patients) | subjects with clinically-relevant improvement in sperm penetration ([3]; of the 29 subjects) | inhibition at 1 µM [4] [%] | IC50 (human MPO) [nM] | drug-related adverse events [5] | MDA staining versus the other conditions (human sperm) |
| --- | --- | --- | --- | --- | --- | --- | --- | --- | --- | --- | --- |
| O=c1[nH]c(=S)n(C[C@H]2CCCO2)c2nc[nH]c12 [AZD5904, 3-[[(2R)-tetrahydrofuran-2-yl]methyl]-2-thioxo-7H-purin-6-one] | decreased | statistical trend | positive trend | over 50% | significantly more sperm | 8 | 15 | > 90 | 140 | No overtly drug-related adverse event |  |
| OO [H2O2, hydrogen peroxide] |  |  |  |  |  |  |  |  |  |  | stained significantly more |
